Residues, ends and D or L forms follow the SMILES beside them.
Assays:
anti-EBNA antibodies = experiment: ELISA with polypeptide as solid phase antigen, anti-polypeptide activity of sera (OD405); type: binding, human; details: for Reaction of VCA+ sera with polypeptide: clinically normal VCA+ individuals, two dilutions; for Reaction of VCA- sera with polypeptide: panel of 19 VCA- sera; for OD405 × 10^3 obtained with Patient Antibodies to peptide: serum 1:20; for Number of anti-EBNA positive sera positive against (bound to) polypeptide: 91 ACIF anti-EBNA positive sera, 1:20 dilution; for Titer of PSS patients versus normals: Progressive Systemic Schlerosis patients
Method: Briefly, microtiter wells (Costar, #3590, Cambridge, MA) were typically coated with individual polypeptides as antigens by adding 100 microliters (ul) of BBS [10 millimoler (mM) sodium borate (pH 8.3), 150 mM NaCl] containing polypeptide at a concentration of 10 micrograms per milliliter (ug/ml). Contact between the wells and antigen-containing solution was maintained for a predetermined time, typically 15 minutes, and at 20 degrees C., to form an antigen-coated solid phase. The solid and liquid phases were separated and the wells were washed three times with BBS.
Non-specific binding sites were blocked by admixing 200 microliters of 1% bovine serum albumin (BSA) in each well to form another solid/liquid phase admixture, and maintaining that solid/liquid phase admixture for 30 minutes, at 20 degrees C. The phases were separated and excess, unbound BSA was removed by washing three times with BBS.
The antibodies in human sera that immunoreacted with an adsored polypeptide were detected using an indicating means comprising alkaline phosphatase-conjugated goat anti-human Ig antibody (Tago, Burlington, Calif.). The antibodies in rabbit sera that immunoreacted with an adsorbed polypeptide were detected using an indicating means comprising alkaline phosphatase-conjugated goat anti-rabbit Ig antibody (Kirkegard & Perry Laboratories, Inc., Gaithersburg, MD). In either instance, 100 microliters of the indicating antibody diluted 1:300 in BBS were added per well to form a further solid/liquid phase composition. This solid-liquid phase composition was maintained for a predetermined time, one hour, for the formation of a reaction product between the human antibodies bound to the solid phase and the indicating means, and at 20 degrees C. The phases were separated, and the solid phase was washed 3 times with BBS.
Alkaline phosphatase-conjugated antibody bound to polypeptide specific antibody was detected by spectrophotometrically measuring the enzymatic hydrolysis of p-nitrophenyl phosphate to p-nitrophenol. Briefly, 100 microliters of p-nitrophenyl phosphate [1 milligram per milliliter in 2 mM MgCl 2, (pH 9.8), 50 mM sodium carbonate] were added to each well. The enzymatic reaction was allowed to proceed 1 hour and then the optical density at 405 nm was determined in a [sequence] spectrophotometer available from Flow Laboratories, Inglewood, Calif.

[1] = Circular dichroism spectroscopy; type: physicochemical; details: 1 mg/ml in phosphate buffered saline
Method: The conformational properties of the polypeptides were investigated to elucidate any secondary structure that might be necessary for polypeptide immunoreaction with human anti-EBNA antibodies. The polypeptides were dissolved at a concentration of 1 mg/ml in phosphate-buffered saline (PBS). Spectra were taken using 1 ml samples in a Cary 61 spectropolarimeter (Cary Instruments, Applied Physics Corp., Monrovia, Calif.) interfaced and automated with a Digital Equipment Corporation 11/02 computer (Digital Equipment Corporation, Maynard, Mass.).

[2] = system: rabbit anti-polypeptide antibody to polypeptide P62; experiment: Competition ELISA with rabbit anti-polypeptide P62 antibody on solid phase P62; type: binding; details: antibody first incubated with competing polypeptide
Method: Anti-peptide antibody binding and inhibition studies were carried out by an enzyme-linked immunosorbent assay (ELISA) as described below.
Contact between the wells and antigen-containing solution was maintained for a predetermined time, typically 15 minutes, and at 20 degrees C., to form an antigen-coated solid phase. The solid and liquid phases were separated and the wells were washed three times with BBS.
Rabbit and human sera (body sample aliquots) were assayed for anti-polypeptide activity by adding 100 microliters of a serum diluted 1:20 in BBS per well to form a solid/liquid phase composition. Contact between the diluted sera and the antigen-coated solid phase was maintained for a predetermined time such as 1 hour, and at 20 degrees C., for an immunoreactant to form. The solid and liquid phases were separated, and the solid phase; i.e., antigen-coated, immunoreactant-containing wells, was then washed three times with BBS.

Compound	Reaction of VCA+ sera with polypeptide (anti-EBNA antibodies)	Reaction of VCA- sera with polypeptide (anti-EBNA antibodies)	Conformation by circular dichroism spectrum [1]	OD405 × 10^3 obtained with Patient Antibodies to peptide (anti-EBNA antibodies; MV post-mononucleosis) [OD405 × 10^3]	OD405 × 10^3 obtained with Patient Antibodies to peptide (anti-EBNA antibodies; MV pre-mononucleosis) [OD405 × 10^3]	OD405 × 10^3 obtained with Patient Antibodies to peptide (anti-EBNA antibodies; SB post-mononucleosis) [OD405 × 10^3]	OD405 × 10^3 obtained with Patient Antibodies to peptide (anti-EBNA antibodies; SB pre-mononucleosis) [OD405 × 10^3]	OD405 × 10^3 obtained with Patient Antibodies to peptide (anti-EBNA antibodies; VCA+ Normal 1) [OD405 × 10^3]	OD405 × 10^3 obtained with Patient Antibodies to peptide (anti-EBNA antibodies; VCA+ Normal 2) [OD405 × 10^3]	Inhibition of binding of anti-polypeptide P62 to polypeptide P62 in the solid phase [2] [%]	Number of anti-EBNA positive sera positive against (bound to) polypeptide (anti-EBNA antibodies)	Titer of PSS patients versus normals (anti-EBNA antibodies)	OD405 × 10^3 obtained with Patient Antibodies to peptide (anti-EBNA antibodies; VCA- Normals (n = 27), average ± one standard deviation) [OD405 × 10^3]
C[C@H](NC(=O)CNC(=O)[C@@H]1CCCN1)C(=O)N1CCC[C@H]1C(=O)NCC(=O)NCC(=O)N[C@@H](CO)C(=O)NCC(=O)N[C@@H](CO)C(=O)NCC(=O)N1CCC[C@H]1C(=O)O [Polypeptide F13, H--Pro--Gly--Ala--Pro--Gly--Gly--Ser--Gly--Ser--Gly--Pro--OH] (H-PGAPGGSGSGP-OH)	all of the VCA^+ individuals were positive	None of the VCA^- sera were found to react positively	random conformation	–	–	–	–	–	–	–	–	–	–
CSCC[C@H](NC(=O)[C@@H]1CCCN1C(=O)[C@H](CCCNC(=N)N)NC(=O)[C@H](CCCCN)NC(=O)[C@H](CCC(=O)O)NC(=O)CNC(=O)[C@H](CCCNC(=N)N)NC(=O)CNC(=O)[C@H](CCCNC(=N)N)NC(=O)CNC(=O)[C@H](CCCNC(=N)N)NC(=O)CNC(=O)[C@H](CCCNC(=N)N)NC(=O)[C@H](C)NC(=O)[C@@H](N)CCCNC(=N)N)C(=O)O [Polypeptide P89, H--Arg--Ala--Arg--Gly--Arg--Gly--Arg--Gly--Arg--Gly--Glu--Lys--Arg--Pro--Met--OH] (H-RARGRGRGRGEKRPM-OH)	–	–	–	25	29	23	9	23	16	–	–	–	–
C[C@H](NC(=O)CNC(=O)CNC(=O)[C@H](C)NC(=O)CNC(=O)[C@H](C)NC(=O)CNC(=O)[C@H](C)NC(=O)CNC(=O)[C@@H](NC(=O)CNC(=O)CNC(=O)[C@H](Cc1c[nH]cn1)NC(=O)[C@@H](NC(=O)CNC(=O)[C@@H](N)CCCCN)[C@@H](C)O)[C@@H](C)O)C(=O)NCC(=O)N[C@@H](C)C(=O)NCC(=O)O [Polypeptide P27, H--Lys--Gly--Thr--His--Gly--Gly--Thr--Gly--Ala--Gly--Ala--Gly--Ala--Gly--Gly--Ala--Gly--Ala--Gly--OH] (H-KGTHGGTGAGAGAGGAGAG-OH)	all of the VCA^+ individuals were positive	None of the VCA^- sera were found to react positively	very similar spectra	107	15	33	11	155	516	36	91	relatively higher average titer	67 ± 23
C[C@H](NC(=O)CN)C(=O)NCC(=O)NCC(=O)N[C@@H](C)C(=O)NCC(=O)N[C@@H](C)C(=O)NCC(=O)NCC(=O)NCC(=O)N[C@@H](C)C(=O)NCC(=O)NCC(=O)N[C@@H](C)C(=O)NCC(=O)NCC(=O)O [Polypeptide F15, H--Gly--Ala--Gly--Gly--Ala--Gly--Ala--Gly--Gly--Gly--Ala--Gly--Gly--Ala--Gly--Gly--OH] (H-GAGGAGAGGGAGGAGG-OH)	all of the VCA^+ individuals were positive	None of the VCA^- sera were found to react positively	very similar spectra	–	–	–	–	–	–	–	91	relatively higher average titer	–
CC[C@H](C)[C@H](N)C(=O)N[C@@H](CCSC)C(=O)N[C@@H](CO)C(=O)N[C@@H](CC(=O)O)C(=O)N[C@@H](CCC(=O)O)C(=O)NCC(=O)N1CCC[C@H]1C(=O)NCC(=O)N[C@H](C(=O)NCC(=O)N[C@@H](CC(N)=O)C(=O)NCC(=O)N[C@@H](CC(C)C)C(=O)NCC(=O)N[C@@H](CCC(=O)O)C(=O)O)[C@@H](C)O [Polypeptide F12, H--Ile--Met--Ser--Asp--Glu--Gly--Pro--Gly--Thr--Gly--Asn--Gly--Leu--Gly--Glu--OH] (H-IMSDEGPGTGNGLGE-OH)	all of the VCA^+ individuals were positive	None of the VCA^- sera were found to react positively	partial assumption of such conformation	–	–	–	–	–	–	–	–	–	–
C[C@H](NC(=O)CNC(=O)CNC(=O)CNC(=O)[C@H](C)NC(=O)CNC(=O)[C@H](C)NC(=O)CNC(=O)CNC(=O)[C@H](C)NC(=O)CNC(=O)CNC(=O)[C@H](C)NC(=O)CNC(=O)CN)C(=O)NCC(=O)O [Polypeptide F14, H--Gly--Gly--Ala--Gly--Gly--Ala--Gly--Gly--Ala--Gly--Ala--Gly--Gly--Gly--Ala--Gly--OH] (H-GGAGGAGGAGAGGGAG-OH)	all of the VCA^+ individuals were positive	None of the VCA^- sera were found to react positively	very similar spectra	–	–	–	–	–	–	–	91	relatively higher average titer	–
C[C@H](NC(=O)CNC(=O)CNC(=O)[C@H](C)NC(=O)CNC(=O)[C@H](C)NC(=O)CNC(=O)CNC(=O)[C@H](C)NC(=O)CNC(=O)[C@H](C)NC(=O)CNC(=O)CNC(=O)[C@H](C)NC(=O)CNC(=O)[C@H](C)NC(=O)CNC(=O)CN)C(=O)NCC(=O)N[C@@H](C)C(=O)NCC(=O)O [Polypeptide F16, H--Gly--Gly--Ala--Gly--Ala--Gly--Gly--Ala--Gly--Ala--Gly--Gly--Ala--Gly--Ala--Gly--Gly--Ala--Gly--Ala--Gly--OH] (H-GGAGAGGAGAGGAGAGGAGAG-OH)	all of the VCA^+ individuals were positive	None of the VCA^- sera were found to react positively	–	–	–	–	–	–	–	–	91	relatively higher average titer	–
